Results reported in patent US20060263305A1, “Biofilm removing agent for removing a biofilm” (priority 2003, published 2006).

Key:
[1] = tested on: biofilm formed by periodontal pathogens; test: biofilm destruction ratio on a preformed biofilm in a glass vessel; format: cell-based, periodontal pathogens (gram-negative bacteria); conditions: 1 mg in 100 ml distilled water; biofilm formed for 24 hours; read after 24 hours; relative to distilled water alone; FIG. 1
Procedure: Periodontal pathogens were put in a glass vessel and left for 24 hours to form a biofilm. Then, a solution of a biofilm removing agent containing 1 mg of azithromycin as a medical agent dissolved in 100 ml of distilled water was supplied into the glass vessel. After lapse of 24 hours, a destruction ratio of the biofilm formed by the periodontal pathogens was examined. Further, the biofilm destruction ratio of the biofilm removing agent containing azithromycin according to this invention was evaluated in comparison with the biofilm destruction ratio of each of minocycline, erythromycin, and josamycin. Specifically, each of minocycline, erythromycin, and josamycin was supplied together with distilled water into a glass vessel in which the biofilm was formed. After lapse of 24 hours, the destruction ratio of the biofilm formed by the periodontal pathogens was examined. The content of each of minocycline, erythromycin, and josamycin in the distilled water was equal to that of the biofilm removing agent containing azithromycin. […] In FIG. 1, the biofilm destruction ratio by each of azithromycin, minocycline, erythromycin, and josamycin is a ratio of a destroyed or lost part of the biofilm with respect to a biofilm formed by the periodontal pathogens and supplied with distilled water alone without any antibiotic.

[2] = tested on: biofilm formed by periodontal pathogens; test: biofilm inhibition ratio (inhibiting formation of the biofilm) in a glass vessel; format: cell-based, periodontal pathogens (gram-negative bacteria); conditions: 1 mg in 100 ml distilled water, added together with the pathogens; read after 24 hours; relative to distilled water alone; FIG. 2
Procedure: Periodontal pathogens were put in a glass vessel together with a biofilm removing agent containing 1 mg of azithromycin as a medical agent dissolved in 100 ml of distilled water. After lapse of 24 hours, an inhibition ratio of the biofilm to be formed by the periodontal pathogens was examined.
Further, the biofilm inhibition ratio of the biofilm removing agent containing azithromycin according to this invention was evaluated in comparison with the biofilm inhibition ration of each of minocycline, erythromycin, and josamycin. Specifically, each of minocycline, erythromycin, and josamycin was put into a glass vessel together with periodontal pathogens and distilled water. After lapse of 24 hours, the biofilm inhibition ratio of the biofilm formed by the periodontal pathogens was examined.
The content of each of minocycline, erythromycin, and josamycin in the distilled water was equal to that of the biofilm removing agent containing azithromycin.
In FIG. 2, the biofilm inhibition ratio of each of azithromycin, minocycline, erythromycin, and josamycin is a ratio of a part without the biofilm with respect to an entire biofilm formed by the periodontal pathogens in presence of distilled water alone without any antibiotic.

[3] = compared with 14-membered ring macrolide antibiotics; stated without a test; cited from earlier work
[4] = tested on: hepatic metabolic enzymes; conditions: compared with 14-membered ring macrolide antibiotics; stated without a test; cited from earlier work
[5] = compared with 14-membered ring macrolide antibiotics; stated without a test; cited from earlier work; remark: listed apart in the source

SMILES | biofilm destruction ratio (destruction ratio of gram-negative bacteria) [1] | biofilm inhibition ratio (adhesion prevention ratio of gram-negative bacteria) [2] | stability against gastric acid [3] | activation of hepatic metabolic enzymes [4] | digestive side effect [5]
CN(C)c1ccc(O)c2c1C[C@H]1C[C@H]3[C@H](N(C)C)C(O)=C(C(N)=O)C(=O)[C@@]3(O)C(O)=C1C2=O [minocycline] | about 10% | about 23% | – | – | –
CC[C@H]1OC(=O)[C@H](C)[C@@H](O[C@H]2C[C@@](C)(OC)[C@@H](O)[C@H](C)O2)[C@H](C)[C@@H](O[C@@H]2O[C@H](C)C[C@H](N(C)C)[C@H]2O)[C@](C)(O)C[C@@H](C)CN(C)[C@H](C)[C@@H](O)[C@]1(C)O [azithromycin] | about 60% | about 45% | considerably stable | extremely small level | equivalent
CO[C@@H]1[C@@H](O[C@@H]2O[C@H](C)[C@@H](O[C@H]3C[C@@](C)(O)[C@@H](OC(=O)CC(C)C)[C@H](C)O3)[C@H](N(C)C)[C@H]2O)[C@@H](CC=O)C[C@@H](C)[C@@H](O)/C=C/C=C/C[C@@H](C)OC(=O)C[C@H]1OC(C)=O [josamycin] | about 25% | about 35% | – | – | –
CC[C@H]1OC(=O)[C@H](C)[C@@H](O[C@H]2C[C@@](C)(OC)[C@@H](O)[C@H](C)O2)[C@H](C)[C@@H](O[C@@H]2O[C@H](C)C[C@H](N(C)C)[C@H]2O)[C@](C)(O)C[C@@H](C)C(=O)[C@H](C)[C@@H](O)[C@]1(C)O [erythromycin] | about 35% | about 40% | – | – | –
